Our source for the IC50 values is PubChem BioAssay AID1645861 (Buhrlage Lab, Dana-Farber Cancer Institute and Novartis …, 2021).

One may read the IC50 as the concentration needed to halve the response being measured.

Molecules are shown by their SMILES. Active and inactive are the calls of the source.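 Rule for the calls: active = compounds whose peak USP7 inhibition across the dose series reached 30% or more; inactive = the rest.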

Ubiquitin carboxyl-terminal hydrolase 7 (Homo sapiens), sequence (Q93009 whole entry, looked up): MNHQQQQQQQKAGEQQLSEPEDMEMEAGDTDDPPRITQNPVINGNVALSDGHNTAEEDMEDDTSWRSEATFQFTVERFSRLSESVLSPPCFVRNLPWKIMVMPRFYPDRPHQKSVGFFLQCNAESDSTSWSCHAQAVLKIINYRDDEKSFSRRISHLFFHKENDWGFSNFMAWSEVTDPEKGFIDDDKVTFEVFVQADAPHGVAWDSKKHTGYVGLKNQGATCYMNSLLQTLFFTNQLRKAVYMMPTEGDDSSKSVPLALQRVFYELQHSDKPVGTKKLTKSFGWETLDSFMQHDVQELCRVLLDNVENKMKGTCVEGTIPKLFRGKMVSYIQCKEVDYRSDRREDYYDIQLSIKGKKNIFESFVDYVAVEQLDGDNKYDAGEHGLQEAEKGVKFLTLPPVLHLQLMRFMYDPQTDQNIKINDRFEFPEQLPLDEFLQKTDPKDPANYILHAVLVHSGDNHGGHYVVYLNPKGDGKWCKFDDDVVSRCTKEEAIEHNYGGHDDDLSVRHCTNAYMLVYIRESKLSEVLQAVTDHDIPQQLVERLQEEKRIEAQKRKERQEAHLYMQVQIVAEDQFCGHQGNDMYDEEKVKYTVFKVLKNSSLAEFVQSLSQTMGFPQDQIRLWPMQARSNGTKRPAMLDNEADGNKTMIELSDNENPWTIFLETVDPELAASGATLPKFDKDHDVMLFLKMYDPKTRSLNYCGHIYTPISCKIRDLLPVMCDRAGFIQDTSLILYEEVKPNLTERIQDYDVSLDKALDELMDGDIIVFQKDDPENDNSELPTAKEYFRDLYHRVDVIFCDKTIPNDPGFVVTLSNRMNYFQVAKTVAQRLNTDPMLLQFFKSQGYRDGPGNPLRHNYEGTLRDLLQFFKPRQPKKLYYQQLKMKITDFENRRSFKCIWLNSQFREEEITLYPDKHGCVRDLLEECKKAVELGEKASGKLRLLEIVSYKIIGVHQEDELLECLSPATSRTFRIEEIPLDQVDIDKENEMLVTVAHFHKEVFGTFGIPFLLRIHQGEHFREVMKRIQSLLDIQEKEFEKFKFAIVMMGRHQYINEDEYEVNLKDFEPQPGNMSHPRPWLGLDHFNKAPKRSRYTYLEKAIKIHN

This experiment addresses Ubiquitin carboxyl-terminal hydrolase 7 (Homo sapiens) (UniProt Q93009). Kind of experiment: Biochemical concentration-response for ubiquitin-specific peptidase 7 DUB inhibitors, verifying primary hits (AID 1645861). As to conditions: purified USP7, Ub-rhodamine cleavage fluorescence, 60 min.
As for `FC(F)(F)c1ccc(Nc2nnnc3ccccc23)cc1`, the IC50 is 20.5 µM. As for `COc1ccc([N+](=O)[O-])cc1NC(=O)COC(=O)c1ccc2[nH]c3c(c2c1)CCCC3`, the IC50 is > 50 µM (inactive). `Cn1c(=O)c(C(=O)Nc2ccc(Br)cc2)nc2ccccc21`: the IC50 is > 50 µM (inactive). As for `COc1cc2c(c(OCC(=O)Nc3ccc4c(c3)OCCO4)c1)C(=O)O[C@@H](C)CCCC(=O)CCCCC2`, the IC50 is > 50 µM (inactive). For `COc1ccc(NC(=O)Cn2cc(C(=O)c3ccc(C)cc3)c(=O)c3ccccc32)cc1`, the IC50 was > 50 µM (inactive). Under `CC(NC(=O)c1nc2n(n1)-c1ccccc1S(=O)(=O)N2)c1cc2ccccc2o1` (stereo not drawn) stands > 50 µM (inactive). The figure for `COc1ccc(NC(=O)Cn2cc(C(=O)c3ccc(Cl)cc3)c(=O)c3cc(F)ccc32)cc1` is 47 µM; for `COc1ccc(C)cc1NC(=O)C1CC(=O)Nc2nc3ccccc3n21` (stereo not drawn) it is > 50 µM (inactive); for `O=C(Nc1cccc(F)c1)Nc1cccc(-c2nnc(-c3ccccc3)o2)c1` it is > 50 µM (inactive). `CCCCCCCCCC(CCCCCCCCCC(=O)O)O[C@H]1O[C@@H](COC(C)=O)[C@H](O)[C@@H](O)[C@H]1OC(=O)CC(=O)O` (stereo partly drawn): the IC50 is > 50 µM (inactive). As to `CCOc1ccc2cc3c(nc2c1)OC(=O)N(Cc1ccc(OC)cc1)C3`, the IC50 is > 50 µM (inactive). Turning to `O=C(Cn1c(=O)n(-c2ccc(CC(=O)NC3CCCC3)cc2)c(=O)c2ccccc21)Nc1ccccc1[N+](=O)[O-]`, the IC50 is > 50 µM (inactive). In the case of `COc1ccccc1-c1nc(-c2cn(-c3ccc(F)cc3)nn2)no1`, the IC50 is 43.9 µM. Turning to `O=C(CCn1c(=O)c2ccccc2n(CC(=O)OCc2ccccc2)c1=O)NCc1ccc2c(c1)OCO2`, the IC50 is > 50 µM (inactive). Take `CC(C)=CCC(O)C1=CC(=O)c2c(O)ccc(O)c2C1=O` (stereo not drawn): the IC50 was 9.02 µM. The figure for `COc1ccc(-c2c(NC(=O)C3COc4ccccc4O3)n[nH]c2C)cc1OC` (stereo not drawn) is > 50 µM (inactive); for `CC1=C(C)C(N(c2ccccc2)c2ccccc2)N(CCC(C)C)C1=O` (stereo not drawn) it is > 50 µM (inactive). For `O=C(O)c1cccc(NC(=O)C(Sc2cccc(NC(=O)c3cccc(Cl)c3)c2)c2ccccc2)c1` (stereo not drawn), the 50% inhibitory concentration (IC50) is 45.8 µM.

As to `O=C(Nc1ccccc1C(=O)O)c1ccc(CSCc2ccccc2)cc1`, the IC50 is > 50 µM (inactive).

With `Cc1nc(-c2noc(-c3cccc(F)c3)n2)cn1CC(=O)Nc1ccccc1`, the IC50 is > 50 µM (inactive). On to `CCCCCCCCCC(CCCCCCCCCC(=O)O)O[C@H]1O[C@@H](COC(C)=O)[C@H](O)[C@@H](OC(=O)CC(=O)O)[C@H]1O` (stereo partly drawn), for which the IC50 is > 50 µM (inactive). For `Cc1cccc2nc(CSc3nc4ccc([N+](=O)[O-])cc4[nH]3)cn12`, the IC50 is > 50 µM (inactive).

Turning to `Cc1ccc(C(=O)c2cn(CC(=O)Nc3ccc4c(c3)OCO4)c3ccccc3c2=O)cc1`, the IC50 was > 50 µM (inactive). The figure for `COc1cn(-c2ccc(F)cc2)nc1C(=O)Nc1ccc(Cl)cc1Cl` is > 50 µM (inactive). For `Cc1cc(NS(=O)(=O)c2ccc(NC(=O)c3ccc(N4CCCC4)c([N+](=O)[O-])c3)cc2)no1`, the IC50 was > 50 µM (inactive). Consider `COc1cc2c(=O)n(CC3CCCO3)c(=O)n(CC(=O)c3ccc4c(c3)OCO4)c2cc1OC` (stereo not drawn), for which the IC50 was > 50 µM (inactive).

In the case of `CC(C)c1ccc(NC(=O)COC(=O)c2ccc(NS(=O)(=O)c3ccc4c(c3)OCCO4)cc2)cc1`, the IC50 is > 50 µM (inactive). Regarding `CCOc1ccc2c(c1)c(=O)c(C(=O)c1ccccc1)cn2CC(=O)Nc1ccc(Cl)cc1`, the IC50 was 41.6 µM. Consider `O=C(NCc1ccc2c(c1)OCO2)c1[nH]nc2c1COc1ccccc1-2`, for which the IC50 is > 50 µM (inactive). Under `COc1ccc(NC(=O)Cn2c(=O)n(CCC(=O)NCc3ccccc3)c(=O)c3sccc32)cc1Cl` stands > 50 µM (inactive); under `Cc1ccc(NC(=O)Cn2c(=O)n(CC(=O)NCc3ccco3)c(=O)c3ccccc32)cc1C`, > 50 µM (inactive); under `COc1cc(C)cc2c1C(=O)c1c(cc(O)c(Cl)c1O)C2=O`, 12.9 µM. Under `COc1ccc(CCC(=O)Nc2nnc(C3CC(=O)N(c4ccc(C)cc4)C3)s2)cc1` (stereo not drawn) stands > 50 µM (inactive); under `O=C1CC(c2ccco2)Cc2[nH]c(=O)c(-c3nc(-c4ccc(Cl)cc4)cs3)cc21` (stereo not drawn), 28.8 µM. The figure for `Cc1ccc(S(=O)(=O)Nc2ccccc2C(=O)Nc2nc3ccc(Br)cc3s2)cc1` is 10 µM. Take `CC(C)CC1NC(=O)C2CCCN2C1=O` (stereo not drawn): the IC50 is > 50 µM (inactive). Regarding `O=C(NC1(O)C(=O)c2ccccc2C1=O)c1ccc(-c2csnn2)cc1`, the IC50 is > 50 µM (inactive). Take `C=C/C(=C/C(=O)C[C@H](C)C[C@@H](C)CC[C@H](O)[C@H](C)C(=O)CC(O)[C@H](C)[C@@H](C)OC(=O)C[C@@H](O)C1=C(C)C(=O)OC1=O)CC` (stereo partly drawn): the half-inhibitory concentration (IC50) is 43.1 µM. With `O=C(NCCc1nc2ccccc2n1CCOc1ccccc1Cl)C1CCCCC1`, the IC50 was > 50 µM (inactive). As to `CO/C=C/C(=O)c1cc2cnc3c(=N)cc(NC(C)=O)c([nH]1)c23`, the IC50 was 9.52 µM. Regarding `Cc1ccc(Nc2nc(NCC(=O)Nc3cc(C)ccc3C)nc(Nc3ccc(C)cc3)n2)cc1`, the IC50 is > 50 µM (inactive). With `COc1cc(O)c2c(O)c3c(cc2c1)C[C@@]1(O)CC(=O)C(C(N)=O)=C(O)[C@@]1(O)C3=O`, the half-maximal inhibitory concentration (IC50) was 16.8 µM. Under `Cc1ccnc(NS(=O)(=O)c2ccc(NC(=O)c3ccc(S(=O)(=O)N(C)Cc4ccccc4)cc3)cc2)n1` stands > 50 µM (inactive); under `O=C(Cn1c(=O)n(Cc2ccc(C(=O)NCc3ccco3)cc2)c(=O)c2ccccc21)Nc1ccc2c(c1)OCCO2`, > 50 µM (inactive); under `COCCn1c(=O)[nH]c2cc(C(=O)NCCNc3ccc([N+](=O)[O-])cc3C#N)ccc2c1=O`, > 50 µM (inactive). `COc1cc(Cl)c(C)cc1NC(=O)Cn1c(=O)n(CC(=O)NCc2ccco2)c(=O)c2ccccc21`: the IC50 was > 50 µM (inactive). `CC/C=C\C/C=C\C/C=C\CCCCCCCC(=O)O`: the half-maximal inhibitory concentration (IC50) is 25.6 µM. For the compound `C[C@H](Cc1cc2c(cc1O)OCO2)[C@@H](C)Cc1cc2c(cc1O)OCO2`, the IC50 is > 50 µM (inactive). Consider `COc1cccc(C(=O)Nc2ccc(SC(C)C(=O)Nc3ccc(C(N)=O)cc3)cc2)c1` (stereo not drawn), for which the IC50 was > 50 µM (inactive). The figure for `COc1ccc(S(=O)(=O)N2CCc3ccccc32)cc1C(=O)Nc1ccc2[nH]c(=O)[nH]c2c1` is > 50 µM (inactive); for `O=C(CC1C(=O)Nc2nc3ccccc3n21)Nc1cccc2ccccc12` (stereo not drawn) it is > 50 µM (inactive). As for `COC(=O)c1ccccc1NC(=O)Cn1c(=O)n(CCCC(=O)NCc2ccco2)c(=O)c2ccccc21`, the IC50 was > 50 µM (inactive).

In the case of `O=c1ccc(-c2cc3ccccc3o2)cn1Cc1ccccc1-c1ccccc1`, the IC50 was 31.4 µM.

With `COC1=C(C2=C(OC)C(=O)c3cc4c(c(O)c3C2=O)C(=O)OC(C)C4)C(=O)c2c(cc3c(c2O)C(=O)OC(C)C3)C1=O` (stereo not drawn), the half-inhibitory concentration (IC50) is 44.7 µM. Consider `O=c1[nH]c(C2CCN(S(=O)(=O)c3ccc(S(=O)(=O)NC4CCCCC4)cc3)CC2)nc2c1nnn2Cc1ccc(F)cc1`, for which the IC50 is > 50 µM (inactive). `CN1C(=O)COc2cc(-c3noc(C(=O)NCc4ccc(F)cc4)n3)ccc21`: the IC50 is > 50 µM (inactive). With `Cc1ccc2c(c1)N(C)C(=O)c1cc(NC(=O)c3ccc(F)cc3)ccc1O2`, the IC50 is > 50 µM (inactive). As to `O=C1c2ccccc2-c2nnc(-c3ccncc3)cc21`, the IC50 was > 50 µM (inactive). As for `O=C(/C=C/c1c(F)cccc1Cl)N1CCc2ccccc2C1`, the IC50 is > 50 µM (inactive). On to `O=C(Cn1c(=O)c2ccccc2c2ccccc21)Nc1ccc2c(c1)OCO2`, for which the IC50 is > 50 µM (inactive). As to `COC(=O)c1ccc2c(=O)n(CCCCCC(=O)NCCc3ccc(S(N)(=O)=O)cc3)c(=O)[nH]c2c1`, the IC50 is > 50 µM (inactive).

As for `COC(=O)C1=CC(OC)=C(Cl)C(=O)C12OC(=O)c1c(O)cc(C)cc1O2` (stereo not drawn), the IC50 is > 50 µM (inactive). Take `CCOC(=O)C1CCN(Cc2cc(=O)oc3cc(O)c(O)cc23)CC1`: the IC50 was 6.18 µM. As to `CCC(=O)Nc1nc2cc(NC(=O)Nc3cccc(C)c3)ccc2s1`, the IC50 was > 50 µM (inactive). On to `Oc1cccc2c(-c3ccc(O)c4c(O)cccc34)ccc(O)c12`, for which the IC50 was > 50 µM (inactive). For the compound `Cc1ccc2[nH]c3c(=O)n(Cc4ccc(N(C)C)cc4)cnc3c2c1`, the IC50 is > 50 µM (inactive).

As for `O=c1c(S(=O)(=O)c2cc(F)cc(F)c2)c[nH]c2cc(Cl)ccc12`, the IC50 is > 50 µM (inactive). For `O=C1Cc2ccccc2C(=O)N1Cc1cccc(Cl)c1`, the IC50 was > 50 µM (inactive). `NS(=O)(=O)c1cccc(NC(=O)/C=C/c2cn(-c3ccccc3)nc2-c2cccc([N+](=O)[O-])c2)c1`: the IC50 was > 50 µM (inactive). Under `O=S(=O)(Nc1ccc(Oc2ncnc3cc(Cl)ccc23)nc1)c1ccc(S(=O)(=O)c2ccccc2)s1` stands 49.6 µM; under `CCc1nc(SCC(=O)Nc2ccc(C)cc2C)c2oc3ccccc3c2n1`, > 50 µM (inactive). The figure for `COc1cc(NC(=O)Cc2ccccc2)ccc1NC(=O)c1cc2ccccc2o1` is > 50 µM (inactive); for `C[C@@H]1CO[C@@H]2C3=C(C(=O)C=CC3=O)[C@H]3OC(=O)[C@@H]4CCC5[C@@H]1CCC52C34` (stereo partly drawn) it is > 50 µM (inactive). With `Cc1nn(-c2ccccc2)c2c1C1(C(=O)Nc3ccccc31)N1C(=N2)Sc2ccccc21` (stereo not drawn), the concentration for half-maximal inhibition (IC50) is 3.39 µM.

Take `CCOC(=O)C1CCN(C(=O)c2ccc3c(c2)NC(=O)C2CCCN32)CC1` (stereo not drawn): the IC50 was > 50 µM (inactive). As to `COc1cccc(NC(=O)Cn2c3ccccc3n3c(=O)cc(-c4ccccc4)nc23)c1`, the IC50 was > 50 µM (inactive). The figure for `CC(C)=CCOC(C)(C)[C@H]1OC2CC[C@@]3(C)C(CCC4Cc5c([nH]c6ccccc56)[C@@]43C)C23OC3[C@@H]1O` (stereo partly drawn) is 37.7 µM; for `CCOc1ccc(-n2c(=O)c3sccc3n(CC(=O)Nc3cccc(C)c3)c2=O)cc1` it is > 50 µM (inactive).
